In patent US7749491B2, “Compounds and methods to enhance rAAV transduction” (priority 2003, dated 2010):

How the values were obtained:
[1] = test system: polarized human bronchial epithelial cells; conditions: hypotonic EGTA solution; cited from earlier work
A549 cells = experiment: AV2Luc / AV2/5Luc transduction of A549 cells with LLnL / doxorubicin; assay type: cell-based, human
HeLa cells [2] = experiment: AAV2 FLAG-Luc transduction of HeLa cells (luciferase screen of agents); assay type: cell-based
Excerpt: A. To screen for agents that enhance rAAV transduction, any number of cells can be used. A range of concentrations of the agent to be tested can be determined based on, for instance desirable profiles of the agent, desirable toxicity profiles of the agent and/or concentration of the agents employed in vivo. The usefulness of the cell type chosen for the screen can be confirmed by testing compounds, e.g., proteosome inhibitors described in Example 1 such as LLnL and ZLL which are known to increase rAAV transduction. For example, a AAV2 FLAG-Luc vector was employed to transduce HeLa, ferret fibroblasts, IB3 and Huh (liver) cells in the presence or absence of the proteosome inhibitor MG132. MG132 was confirmed to enhance AAV transduction in all cell types tested: HeLa cell transduction was enhanced about 500-fold at 80 μM, and 200-fold at 40 μM, MG132; ferret fibroblast cell transduction was enhanced about 200-fold at 20 μM, and 17-fold at 4 μM, MG132; IB3-1 cell transduction was enhanced about 30 to 70-fold at 20 to 80 μM MG132; and Huh-7 cell transduction was enhanced about 15-fold at 20 to 80 μM MG132. There was no difference in rAAV transduction efficiency in HeLa cells when either DMSO or ETOH was used as a vehicle for MG132. B. HeLa cells were selected to screen for additional agents that enhance rAAV transduction, although any cell strain or line; or primary cells, may be employed. […] The range of concentrations of the agents to be tested were selected based on solubility profiles, toxicity profiles and/or concentrations previously employed in vivo.
HeLa cells were infected for 2 hours with an MOI of 100 rAAV in the presence of agents, e.g., ritonavir (Norvir) (1, 10 and 100 μM), cyclosporin A (2.5, 25 and 250 μg/ml), epoxomicin (1, 10 and 50 μM), alcacinomycin A (5, 50 or 500 μM), chymostatin (1, 10 and 100 μM), bestatin (1, 10 and 100 μM), doxorubicin (adriamycin) (0.1, 1 and 10 μM), camptothecin (camptosar) (1, 10 and 100 μM), eicosapentanoic acid (1, 10 and 100 μM), tannic acid (2, 20, 200 and 2000 μM), simvastatin, prodrug (2, 20 and 200 μM), cisplatin (0.2, 2 and 20 μg/mL), and chloroquine (4, 40 and 400 μM). Forty-eight hours after infection, cells were harvested for analysis. rAAV transduction was measured by removing the media from the cell cultures, adding 100 μL reporter lysis buffer (RLB) and freezing. The supernatant was thawed and transferred to microfuge tubes, freeze thawed an additional 2 times, clarified by centrifugation for 10 minutes and then analyzed for reporter gene expression on the luminometer. Protein was determined by Bradford analysis and results were expressed as relative light units per mg protein (RLU/mg).
Based on results with doxorubicin, a small number of FDA approved anthracyclines were tested for their relative in vitro and in vivo activities on AAV transduction. HeLa cells were infected with 100 ppc AAV2FLAG-Luc for 2 hours in the presence of different anthracyclines, e.g., doxorubicin, daunarubicin (Cerubidine), epirubicin (Ellence™), and idarubicin (Idamycin®), and cells harvested 48 hours later. The anthracyclines were pharmaceutical grade, and prepared according to the manufacturer's instructions. Prior to use, the agents were diluted in sterile water to an equal mass, e.g., 0.6 μg/mL, 3 μg/mL and 6 μg/mL. For example, 3 μg/mL idamycin increased luciferase expression by over 5000-fold while doxorubin increased luciferase expression by 58-fold. Generally, the potency was as follows: idarubicin>daunarubicin>epirubicin>doxorubicin.

ferret fibroblast = experiment: rAAV transduction of ferret fibroblasts with LLnL / doxorubicin; assay type: cell-based; conditions: for concentration at which transduction is enhanced: ferret fibroblast
Description: (§1) C. To determine whether combinations of agents that enhance rAAV transduction efficiency have synergistic or additive effects when used in combination, cells were contacted with the proteosome modulator, doxorubicin, and the proteosome inhibitor Z-LLL or LLnL. Different AAV vectors were tested, including splicing vectors and pseudotyped rAAV. Viral stocks utilized were as follows: Av2RSVluc, 5×10^8 particle/μl; Av2RSVlucCap5 (also referred to as Av2/5 CMVLuc), 2×10^9 particle/μl; Av2CMVluc, 1.3×10^9 particle/μl; and Av2CMVlucCap5, 1.1×10^9 particle/μl. Combinations of agents were compared to the agents used alone to determine the efficiency of transduction. LLnL was used at 40, 200 or 400 μM, Z-LLL at 4 μM and doxorubicin at 0.5 or 1 μM when employed alone. When a combination of LLnL and doxorubicin was used, LLnL was used at 4, 10, 20, 40, 200 or 400 μM and doxorubicin at 1 or 5 μM. The apical surface of polarized airway epithelia, HeLa cells or ferret fibroblast was contacted with the agents and rAAV (5×10^9 particles per well).

HeLa cells [3] = experiment: Luciferase rAAV transduction of HeLa cells with LLnL / doxorubicin; assay type: cell-based
Description: as §1

IB3 cells = experiment: AV2Luc / AV2/5Luc transduction and nuclear uptake in IB3 cells; assay type: cell-based, human; conditions: rAAV2-infected IB3 cells; 40 μM LLnL or 1 μM Dox; 24 hours
Description: LLnL and Z-LLL are two tripeptidyl aldehydes shown to inhibit calpains, cathepsins, cysteine proteases as well as the chymotrypsin-like protease activity of proteasomes (Wagner et al., 2002; Donkor, 2000; Sasaki et al., 1990). […] Both classes of proteasome inhibitors bind tightly to the proteasome complex. Dose response curves for these two proteasome-modulating agents were evaluated on IB3, A549, Hela, and primary fibroblasts. The responses were consistent for a number of cell lines and for three different promoters driving luciferase expression. For one set, CMV-driven luciferase constructs with an AAV2-based genome were employed that were packaged into AV2 or AV5 capsids. Cells were infected at various doses of AV2Luc and AV2/5Luc (MOIs 100 to 1000 particles/cell). At the time of infection, cells were treated with various concentrations of LLnL or Doxorubicin and gene expression was assayed at 24 hours post-infection. The effect of proteasome inhibitors on nuclear uptake of virus was evaluated using a previously-described protocol for fractionating viral DNA in the cytoplasm and nucleus (Xiao et al., 2002). Viral DNA content in the cytoplasmic and nuclear fractions was then evaluated by slot blot hybridization against a Luciferase DNA probe.

[4] = test system: polarized human airway epithelia; experiment: Luciferase rAAV2 / rAAV5-capsid transduction of polarized human airway epithelia; assay type: cell-based; conditions: for enhancement of transduction from the apical surface: LLnL 40 μM and/or Dox 5 μM at the time of infection; for concentration at which transduction is enhanced: polarized airway epithelial cells
[5] = Toxicity of proteasome inhibitors in mice; assay type: in vivo, mouse; conditions: 10, 100, and 1000 fold higher effective doses; intra-tracheal and systemic (IV) delivery
Description: Long-term enhancement of rAAV transduction by proteasome inhibitor in vivo. To evaluate the potential utility of proteasome inhibitors for in vivo gene therapy, both the toxicity and efficacy of these agents for in vivo rAAV mediated gene transfer in the mouse lung was tested. To assess the toxicity of these proteasome inhibitors in mice, 10, 100, and 1000 fold higher effective doses of LLnL or Z-LLL were administered than used to induce gene transfer in polarized airway cells, using both intra-tracheal and systemic (IV) delivery. No toxicity was indicated by histologic evaluation of the lung and liver or was evidenced by the death of animals. To investigate whether these proteasome inhibitors could improve rAAV transduction in vivo, AV.LacZ (5×10^10 particles) was delivered either alone or in the presence of 400 μM Z-LLL by intranasal administration. Mouse lungs were harvested at 3, 10 and 150 days post-infection to evaluate short and long term effects. […] Targeted transgene expression was predominantly confined to the conducting airways, rather than in the parenchyma. Alveolar cells were rarely transduced. […] The range of transgene expression in distal and proximal airways was 0 to 4% and 5 to 18%, respectively.

[6] = test system: primary fetal fibroblasts; experiment: rAAV transduction of primary fetal fibroblasts with LLnL, Dox or both; assay type: cell-based; conditions: LLnL by itself
Description: Hela, A549, IB3, and primary fetal fibroblasts were evaluated for AV2Luc and AV2/5Luc transduction in the presence of LLnL, Dox, or LLnL+Dox at various concentrations. The data shown is from Hela and A549 cells at the most optimal dose combination that induces rAV2Luc transduction to a greater extent than each compound alone.

[7] = test system: polarized human bronchial epithelial cells; assay type: cell-based
Description: Primary culture of human bronchial epithelia and reagents utilized. Primary human airway epithelial cells were collected by enzymatic digestion of bronchial samples from lung transplants, as previously described (Kondo et al., 1991; Zabner et al., 1996). Isolated primary airway cells were seeded at a density of 5×10^5 cells/cm^2 onto collagen-coated Millicell-HA culture inserts (Millipore Corp., Bedford, Mass.). Primary cultures were grown at the air-liquid interface for more than 2 weeks, by which time differentiation into a mucociliary epithelium occurs. The culture medium, used to feed only the basolateral side of the cells, contained 49% DMEM, 49% Ham's F12 and 2% Ultraser G (BioSepra, Cedex, France). Dimethyl Sulphoxide (DMSO), camptothecin (Camp), etoposide (Etop), aphidicolin (Aphi), hydroxyurea (HU) and genistein (Geni) were purchased from Sigma (St. Louis, Mo.). Tripeptidyl aldehyde proteasome inhibitors N-Acetyl-L-Leucyl-L-Leucyl-Norleucine (LLnL) and benzyloxycarbonyl-L-leucyl-L-leucyl-L-leucinal (Z-LLL) were purchased from Calbiochem-Novabiochem Corporation (La Jolla, Calif.). Ubiquitin ligase (E3) inhibitors were obtained from Bachem Bioscience Inc. (King of Prussia, Pa.). Anti-AAV capsid monoclonal antibody (Anti-VP1, 2 and 3) was purchased from American Research Products (Belmont, Mass.) and anti-ubiquitin antibody was purchased from Santa Cruz Biotechnology Inc. (Santa Cruz, Calif.).
Transduction of polarized airway epithelial cells and primary human fibroblasts. rAAV infection of fully differentiated bronchial cells was performed as described in Duan et al. (1998). For infections from the apical surface of the airway cells, 5 μl rAAV was mixed with 50 μl of culture media and applied directly onto the apical compartment of Millicell inserts (MOI=10,000 particles/cell). During apical infection, the basolateral side of the Millicell was continuously bathed in culture media. Gene transfer to the basal side was performed by inverting Millicell inserts and applying viral vector to the bottom of the supporting filter membrane in a 50 μl volume for 2 hours. Subsequently, Millicell inserts were returned to the upright position, in the continued presence of the original viral inoculum plus an additional 450 μl of media. For both apical and basolateral infections, rAAV containing media was removed after 24 hours and replaced with either fresh culture media (for the basal side) or exposed to air (for the apical side). To test the effect of different agents on the efficiency of AAV transduction in polarized airway cells, 1 μl of each solution was mixed with AAV prior to infection of airway epithelia. Agents were usually presented during the 24 hours AAV infection period unless indicated otherwise. Most of the agents were dissolved in DMSO except for hydroxyurea (dissolved in phosphate buffered saline), H-Leu-Ala-OH (dissolved in 0.9% glacial acetic acid) and H-His-Ala-OH (dissolved in 50% methanol). The working concentrations of the agents were as follows: 0.1 μM camptothecin, 10 μM etoposide, 5 μg/ml aphidicolin, 40 mM hydroxyurea, 50 μM genistein, 40 μM LLnL and 4 μM Z-LLL. When the ubiquitin ligase (E3) inhibitors (H-Leu-Ala-OH and H-His-Ala-OH) were used, airway cells were pretreated with a combination of both inhibitors at a final concentration of 2 mM for 60 minutes prior to infection, followed by the continued presence of inhibitor (0.2 mM) during the entire 24 hours infection period from the basolateral surface. Studies involving EGTA treatment were performed by transiently treating the apical membrane of polarized airway epithelia with 3 mM EGTA in water for 10 minutes (Duan et al., 1998). Following hypotonic EGTA treatment, cultures were washed twice with culture medium and infected with rAAV in the presence or absence of 40 μM LLnL. Human primary fibroblast cells (P4) were maintained in 10% fetal bovine serum (FBS), 1% penicillin and streptomycin, and 89% DMEM. […]

Compound | increase of AAV transduction from the apical surface [1] [fold] | concentration at which transduction is enhanced (A549 cells) [µM] | increase of luciferase expression (HeLa cells [2]; 3 μg/mL, 100 ppc AAV2FLAG-Luc 2 hours, harvested 48 hours) [fold] | outcome in cell line screening (HeLa cells [2]; HeLa screen) | concentration at which transduction is enhanced (ferret fibroblast) [µM] | enhancement of transduction with lacZ splicing vectors (ferret fibroblast; ferret fibroblasts infected with lacZ splicing vectors) | concentration at which transduction is enhanced (HeLa cells [3]) [µM] | fraction of viral DNA in the nuclear compartment (IB3 cells) | enhancement of transduction from the apical surface [4] [fold] | concentration at which transduction is enhanced [4] [µM] | toxicity (histologic evaluation of lung and liver, death of animals) [5] | induction of transduction [6] [fold] | polarity of enhancement of AV2Luc and AV2/5Luc transduction ([4]; LLnL 40 μM, 5 and 14 days) | effect on AV2.RSVluc transduction ([4]; apical and basolateral infection) | increase of AV2.RSVlucCap5 transduction ([4]; virus applied to the apical surface) [fold] | time of peak of augmentation in AAV transduction, mucosal co-administration ([7]; LLnL and rAAV to the mucosal surface) [days] | augmentation in transgene expression ([7]; applied to the serosal surface along with rAAV, 2 days post infection, LLnL 40 μM) | toxicity to cells on continual administration ([7]; continual administration, transgene expression ablated by 10 days) | time of transient peak in gene expression, serosal infection ([7]; rAAV from the serosal surface in the presence of LLnL) [h]
O=C(O)CN(CCOCCOCCN(CC(=O)O)CC(=O)O)CC(=O)O [EGTA] | 7 to 10 | – | – | – | – | – | – | – | – | – | – | – | – | – | – | – | – | – | –
COc1cccc2c1C(=O)c1c(O)c3c(c(O)c1C2=O)C[C@@](O)(C(=O)CO)C[C@@H]3O[C@H]1C[C@H](N)[C@H](O)[C@H](C)O1 [doxorubicin] | – | 5 | 58 | tested positive | 1 | about 100 fold | 1 | significantly increased the fraction of viral DNA in the nuclear compartment | 100 | 5 | – | – | – | – | – | – | – | – | –
N-acetyl-L-leucinyl-L-leucinal-L-norleucinal [LLnL] | – | 200 to 400 | – | – | 40 | – | 40 | significantly increased the fraction of viral DNA in the nuclear compartment | 10 | 40 | No toxicity | 10 | only apical transduction for both AAV serotypes was enhanced | augments AV2.RSVluc transduction from the apical and basolateral surfaces | 12 | 22 | greater than 200 fold | toxic to cells | 72
